These results are taken from patent publication US10501461B2, “Tyrosine amide derivatives as Rho-kinase inhibitors” (CHIESI FARMACEUTICI S.P.A., priority 2017, dated 2019).

The structures appear in SMILES notation.

The target of one assay is Rho kinase 1 (ROCK-I) (Homo sapiens, UniProt Q13464). In words: In vitro Rho kinase inhibitory activity assay (ADP-Glo), Rho kinase 1. The class given is biochemical. The conditions noted are these: 10 μM ATP, 25° C., expressed as range of activity. In outline:
(§1)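 Kinase activity is measured as ADP production (ADP-Glo, luminescence) after 1 hour at 25 °C with 10 μM ATP and 2.5 μM Myelin Basic Protein, following 30 min enzyme–compound preincubation. Buffer is 40 mM Tris pH7.5, 20 mM MgCl2, 0.1 mg/ml BSA, 50 μM DTT.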

The next assay has as its target Rho kinase 2 (ROCK-II) (Homo sapiens, UniProt O75116). In words: In vitro Rho kinase inhibitory activity assay (ADP-Glo), Rho kinase 2. The format is biochemical. Conditions: 10 μM ATP, 25° C., expressed as range of activity. In outline:
as §1
A general note: ADP-Glo turns the ADP formed in a reaction into a luminescent signal.

Chain of Rho kinase 2 (ROCK-II) (O75116 whole entry): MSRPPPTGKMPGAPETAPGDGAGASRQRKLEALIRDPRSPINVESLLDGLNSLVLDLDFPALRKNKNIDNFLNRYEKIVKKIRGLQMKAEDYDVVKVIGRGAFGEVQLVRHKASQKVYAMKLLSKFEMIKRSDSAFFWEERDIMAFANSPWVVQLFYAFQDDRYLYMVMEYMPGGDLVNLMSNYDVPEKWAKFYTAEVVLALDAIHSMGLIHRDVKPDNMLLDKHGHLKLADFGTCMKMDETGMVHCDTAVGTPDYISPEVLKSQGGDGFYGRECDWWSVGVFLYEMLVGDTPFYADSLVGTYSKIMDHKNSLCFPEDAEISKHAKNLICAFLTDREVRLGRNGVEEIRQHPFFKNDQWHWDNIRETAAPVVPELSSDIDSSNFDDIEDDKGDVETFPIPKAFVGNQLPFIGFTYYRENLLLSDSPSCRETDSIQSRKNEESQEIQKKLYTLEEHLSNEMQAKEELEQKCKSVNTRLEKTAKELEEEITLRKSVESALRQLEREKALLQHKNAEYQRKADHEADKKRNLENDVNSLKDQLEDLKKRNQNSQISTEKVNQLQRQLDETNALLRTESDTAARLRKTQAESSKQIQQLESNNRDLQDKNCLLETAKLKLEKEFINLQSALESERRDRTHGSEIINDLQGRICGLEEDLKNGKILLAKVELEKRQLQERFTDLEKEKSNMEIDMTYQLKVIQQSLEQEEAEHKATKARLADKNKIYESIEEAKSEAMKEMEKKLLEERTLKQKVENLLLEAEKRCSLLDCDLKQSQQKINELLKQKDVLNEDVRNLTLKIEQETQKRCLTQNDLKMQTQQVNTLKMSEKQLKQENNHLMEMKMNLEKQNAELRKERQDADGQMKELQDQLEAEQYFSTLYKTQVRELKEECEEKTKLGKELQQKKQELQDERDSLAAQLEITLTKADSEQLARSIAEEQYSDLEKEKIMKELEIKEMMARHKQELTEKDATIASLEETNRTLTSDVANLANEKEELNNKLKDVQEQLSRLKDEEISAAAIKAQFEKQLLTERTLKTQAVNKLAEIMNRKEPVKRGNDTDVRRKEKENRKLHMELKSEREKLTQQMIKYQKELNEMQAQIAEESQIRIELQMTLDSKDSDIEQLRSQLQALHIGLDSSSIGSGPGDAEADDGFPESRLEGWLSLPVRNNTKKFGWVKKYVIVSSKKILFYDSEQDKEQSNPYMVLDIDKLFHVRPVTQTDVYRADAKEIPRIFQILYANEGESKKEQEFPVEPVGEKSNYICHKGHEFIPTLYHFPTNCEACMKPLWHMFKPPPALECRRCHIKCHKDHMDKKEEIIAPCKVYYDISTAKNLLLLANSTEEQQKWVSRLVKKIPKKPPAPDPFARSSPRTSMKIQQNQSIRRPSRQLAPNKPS
Chain of Rho kinase 1 (ROCK-I) (Q13464 whole entry): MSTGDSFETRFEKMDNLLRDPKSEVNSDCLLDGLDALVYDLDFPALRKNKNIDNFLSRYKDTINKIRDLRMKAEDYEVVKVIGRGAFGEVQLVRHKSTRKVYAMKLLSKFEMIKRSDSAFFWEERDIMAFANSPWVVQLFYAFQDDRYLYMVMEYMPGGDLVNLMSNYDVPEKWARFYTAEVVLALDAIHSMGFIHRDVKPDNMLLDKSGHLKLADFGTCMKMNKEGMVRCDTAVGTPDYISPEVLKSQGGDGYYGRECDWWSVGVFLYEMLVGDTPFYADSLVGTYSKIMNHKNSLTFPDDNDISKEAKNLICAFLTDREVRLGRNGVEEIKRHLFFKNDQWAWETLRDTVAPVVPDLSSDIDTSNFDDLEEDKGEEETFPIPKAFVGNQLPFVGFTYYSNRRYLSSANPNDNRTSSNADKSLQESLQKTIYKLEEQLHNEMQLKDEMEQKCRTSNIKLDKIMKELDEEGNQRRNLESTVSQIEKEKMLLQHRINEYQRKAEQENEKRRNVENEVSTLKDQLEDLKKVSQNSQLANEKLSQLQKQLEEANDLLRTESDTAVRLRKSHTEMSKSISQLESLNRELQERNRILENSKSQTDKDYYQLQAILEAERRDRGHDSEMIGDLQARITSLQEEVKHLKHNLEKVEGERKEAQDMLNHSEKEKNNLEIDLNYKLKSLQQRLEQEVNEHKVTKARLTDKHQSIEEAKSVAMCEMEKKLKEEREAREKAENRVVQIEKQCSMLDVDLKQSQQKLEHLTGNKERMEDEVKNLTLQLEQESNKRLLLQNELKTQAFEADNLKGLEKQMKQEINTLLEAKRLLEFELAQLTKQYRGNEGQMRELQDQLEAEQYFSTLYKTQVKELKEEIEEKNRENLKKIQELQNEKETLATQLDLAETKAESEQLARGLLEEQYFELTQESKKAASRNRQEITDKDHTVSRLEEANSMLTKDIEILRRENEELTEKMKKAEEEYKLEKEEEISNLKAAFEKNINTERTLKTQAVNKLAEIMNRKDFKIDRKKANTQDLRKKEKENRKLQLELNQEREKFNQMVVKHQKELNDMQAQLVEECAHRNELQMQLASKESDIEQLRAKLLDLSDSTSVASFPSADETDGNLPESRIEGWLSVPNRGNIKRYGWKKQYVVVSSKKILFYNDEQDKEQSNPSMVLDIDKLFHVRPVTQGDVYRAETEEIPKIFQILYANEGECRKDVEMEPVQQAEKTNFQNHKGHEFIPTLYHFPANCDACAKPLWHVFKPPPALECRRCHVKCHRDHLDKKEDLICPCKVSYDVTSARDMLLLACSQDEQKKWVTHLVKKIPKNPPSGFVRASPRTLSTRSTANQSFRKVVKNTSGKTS

A word on the Ki: it is a dissociation constant, usually derived from enzyme kinetics or from competition with a known ligand. Low values mean tighter binding, high ones weaker binding. As for `Cc1c[nH]c2nccc(Oc3ccc(C[C@H](N)C(=O)N(C)C4CCN(C)CC4)cc3F)c12` [Example 44, (S)-2-amino-3-(3-fluoro-4-((3-methyl-1H-pyrrolo[2,3-b]pyridin-4-yl)oxy)phenyl)-N-methyl-N-(1-methylpiperidin-4-yl)propanamide], the Ki on Rho kinase 1 (ROCK-I) is 3 to 30 nM; on Rho kinase 2 (ROCK-II), below 3 nM.
On the same counts, the results for `CN(C)CCCNC(=O)[C@@H](N)Cc1ccc(Oc2ccnc3[nH]cc(CO)c23)c(F)c1` [Example 212, (S)-2-amino-N-(3-(dimethylamino)-propyl)-3-(3-fluoro-4-((3-(hydroxymethyl)-1H-pyrrolo[2,3-b]pyridin-4-yl)oxy)phenyl)propanamide] are 3 to 30 nM and 3 to 30 nM.
On the same counts, the results for `N[C@@H](Cc1ccc(Oc2ccnc3[nH]cc(-c4ccc(O)cc4)c23)cc1)C(=O)N1CCN(Cc2ccccc2)CC1` [Example 200, (S)-2-amino-1-(4-benzylpiperazin-1-yl)-3-(4-((3-(4-hydroxyphenyl)-1H-pyrrolo[2,3-b]pyridin-4-yl)oxy)phenyl)propan-1-one] are below 3 nM and below 3 nM.
For the compound `N[C@@H](Cc1ccc(Oc2ccnc3[nH]cc(Br)c23)cc1)C(=O)NC1CCCCC1` [Example 188, (S)-2-amino-3-(4-((3-bromo-1H-pyrrolo[2,3-b]pyridin-4-yl)oxy)phenyl)-N-cyclohexylpropanamide], the Ki at Rho kinase 1 (ROCK-I) and at Rho kinase 2 (ROCK-II) was below 3 nM each time.
As to `CNC(=O)c1cccc(CN2CCN(C(=O)[C@@H](N)Cc3ccc(Oc4ccnc5[nH]cc(C)c45)c(F)c3)CC2)c1` [Example 165, (S)-3-((4-(2-amino-3-(3-fluoro-4-((3-methyl-1H-pyrrolo[2,3-b]pyridin-4-yl)oxy)phenyl)propanoyl)piperazin-1-yl)methyl)-N-methylbenzamide], the Ki on Rho kinase 1 (ROCK-I) and at Rho kinase 2 (ROCK-II) was below 3 nM throughout.
For the compound `Cc1c[nH]c2nccc(Oc3ccc(C[C@H](N)C(=O)N4CC(N(C)C)C4)cc3F)c12` [Example 41, (S)-2-amino-1-(3-(dimethylamino)azetidin-1-yl)-3-(3-fluoro-4-((3-methyl-1H-pyrrolo[2,3-b]pyridin-4-yl)oxy)phenyl)propan-1-one], the inhibitory constant (Ki) on Rho kinase 1 (ROCK-I) and on Rho kinase 2 (ROCK-II) was below 3 nM each time.
For the compound `Cc1c[nH]c2nccc(Oc3ccc(C[C@H](N)C(=O)N4CCC[C@@H](N(C)C)C4)cc3F)c12` [Example 50, (S)-2-amino-1-((R)-3-(dimethylamino)piperidin-1-yl)-3-(3-fluoro-4-((3-methyl-1H-pyrrolo[2,3-b]pyridin-4-yl)oxy)phenyl)propan-1-one], the Ki on Rho kinase 1 (ROCK-I) and at Rho kinase 2 (ROCK-II) was below 3 nM throughout.
On to `CSc1nccc(CN2CCN(C(=O)[C@@H](N)Cc3ccc(Oc4ccnc5[nH]cc(C)c45)c(F)c3)CC2)n1` [Example 154, (S)-2-amino-3-(3-fluoro-4-((3-methyl-1H-pyrrolo[2,3-b]pyridin-4-yl)oxy)phenyl)-1-(4-((2-(methylthio)pyrimidin-4-yl)methyl)piperazin-1-yl)propan-1-one], for which the inhibitory constant (Ki) at Rho kinase 1 (ROCK-I) and at Rho kinase 2 (ROCK-II) was below 3 nM each time.
Regarding `CN(CC1CCCCC1)C(=O)[C@@H](N)Cc1ccc(Oc2ccnc3[nH]ccc23)cc1` [Example 92, (S)-3-(4-((1H-pyrrolo[2,3-b]pyridin-4-yl)oxy)phenyl)-2-amino-N-(cyclohexylmethyl)-N-methylpropanamide], the Ki on Rho kinase 1 (ROCK-I) and on Rho kinase 2 (ROCK-II) was 3 to 30 nM in each case.
As for `Cc1c[nH]c2nccc(Oc3ccc(CC(N)C(=O)N4CCN(CC5CC5)CC4)cc3F)c12` (stereo not shown) [Example 58, 2-amino-1-(4-(cyclopropylmethyl)piperazin-1-yl)-3-(3-fluoro-4-((3-methyl-1H-pyrrolo[2,3-b]pyridin-4-yl)oxy)phenyl)propan-1-one], the Ki at Rho kinase 1 (ROCK-I) and at Rho kinase 2 (ROCK-II) was below 3 nM each time.
Take `Cc1c[nH]c2ncnc(Oc3ccc(C[C@H](N)C(=O)N4CCN(Cc5ccccc5)CC4)cc3F)c12` [Example 115, (S)-2-amino-1-(4-benzylpiperazin-1-yl)-3-(3-fluoro-4-((5-methyl-7H-pyrrolo[2,3-d]pyrimidin-4-yl)oxy)phenyl)propan-1-one]: the Ki at Rho kinase 1 (ROCK-I) and at Rho kinase 2 (ROCK-II) was below 3 nM each time.
As to `N[C@@H](Cc1ccc(Oc2ccnc3[nH]cc(CO)c23)c(F)c1)C(=O)N1CCN(Cc2ccccc2)CC1` [Example 207, (S)-2-amino-1-(4-benzylpiperazin-1-yl)-3-(3-fluoro-4-((3-(hydroxymethyl)-1H-pyrrolo[2,3-b]pyridin-4-yl)oxy)phenyl)propan-1-one], the Ki at Rho kinase 1 (ROCK-I) and at Rho kinase 2 (ROCK-II) was below 3 nM each time.
On to `Cc1c[nH]c2nccc(Oc3ccc(C[C@H](N)C(=O)N4CCN(C(=O)c5ccccc5)CC4)cc3F)c12` [Example 167, (S)-2-amino-1-(4-benzoylpiperazin-1-yl)-3-(3-fluoro-4-((3-methyl-1H-pyrrolo[2,3-b]pyridin-4-yl)oxy)phenyl)propan-1-one], for which the Ki at Rho kinase 1 (ROCK-I) and at Rho kinase 2 (ROCK-II) was below 3 nM in each case.
`Cc1c[nH]c2nccc(Oc3ccc(C[C@H](N)C(=O)N4CCC(c5ccncc5)CC4)cc3F)c12` [Example 12, (S)-2-amino-3-(3-fluoro-4-((3-methyl-1H-pyrrolo[2,3-b]pyridin-4-yl)oxy)phenyl)-1-(4-(pyridin-4-yl)piperidin-1-yl)propan-1-one]: the Ki on Rho kinase 1 (ROCK-I) and at Rho kinase 2 (ROCK-II) was below 3 nM each time.
Regarding `Cc1c[nH]c2ncnc(Oc3ccc(C[C@H](N)C(=O)N4CCC(Oc5cccnc5)CC4)cc3F)c12` [Example 126, (S)-2-amino-3-(3-fluoro-4-((5-methyl-7H-pyrrolo[2,3-d]pyrimidin-4-yl)oxy)phenyl)-1-(4-(pyridin-3-yloxy)piperidin-1-yl)propan-1-one], the Ki at Rho kinase 1 (ROCK-I) and on Rho kinase 2 (ROCK-II) was 3 to 30 nM each time.
For the compound `COc1ccc(CN2CCN(C(=O)C(N)Cc3ccc(Oc4ccnc5[nH]cc(C)c45)c(F)c3)CC2)cc1` (stereo not shown) [Example 75, 2-amino-3-(3-fluoro-4-((3-methyl-1H-pyrrolo[2,3-b]pyridin-4-yl)oxy)phenyl)-1-(4-(4-methoxybenzyl)piperazin-1-yl)propan-1-one], the Ki at Rho kinase 1 (ROCK-I) and at Rho kinase 2 (ROCK-II) was below 3 nM throughout.
Consider `Cc1c[nH]c2nccc(Oc3ccc(C[C@H](N)C(=O)N4CC5(CNC5)C4)cc3F)c12` [Example 29, (S)-2-amino-3-(3-fluoro-4-((3-methyl-1H-pyrrolo[2,3-b]pyridin-4-yl)oxy)phenyl)-1-(2,6-diazaspiro[3.3]heptan-2-yl)propan-1-one], for which the Ki on Rho kinase 1 (ROCK-I) and at Rho kinase 2 (ROCK-II) was below 3 nM in each case.
With `Cc1c[nH]c2nccc(Oc3ccc(CC(N)C(=O)NCCc4ccncc4)cc3F)c12` (single isomer, unassigned) [Example 57A, 2-amino-3-(3-fluoro-4-((3-methyl-1H-pyrrolo[2,3-b]pyridin-4-yl)oxy)phenyl)-N-(2-(pyridin-4-yl)ethyl)propanamide], the Ki at Rho kinase 1 (ROCK-I) was 3 to 30 nM; on Rho kinase 2 (ROCK-II) it was below 3 nM.
On the same counts, the results for `Cc1c[nH]c2nccc(Oc3ccc(C[C@@H](N)C(=O)NCc4ccccc4)cc3)c12` [Example 136, (R)-2-amino-N-benzyl-3-(4-((3-methyl-1H-pyrrolo[2,3-b]pyridin-4-yl)oxy)phenyl)propanamide] are 3 to 30 nM and 3 to 30 nM.
On the same counts, the results for `Cc1c[nH]c2nccc(Oc3ccc(CC(N)C(=O)NCCc4ccncc4)cc3F)c12` (single isomer, unassigned) [Example 57B, 2-amino-3-(3-fluoro-4-((3-methyl-1H-pyrrolo[2,3-b]pyridin-4-yl)oxy)phenyl)-N-(2-(pyridin-4-yl)ethyl)propanamide] are below 3 nM and below 3 nM.
The like results for `N[C@@H](Cc1ccc(Oc2ccnc3[nH]ccc23)cc1)C(=O)NC1CCCCC1` [Example 111, (S)-3-(4-((1H-pyrrolo[2,3-b]pyridin-4-yl)oxy)phenyl)-2-amino-N-cyclohexylpropanamide] were, in that order, 3 to 30 nM and below 3 nM.
In the case of `Cc1c[nH]c2nccc(Oc3ccc(CC(N)C(=O)N4CCN(Cc5ccc6c(c5)OCO6)CC4)cc3F)c12` (stereo not shown) [Example 52, 2-amino-1-(4-(benzo[d][1,3]dioxol-5-ylmethyl)piperazin-1-yl)-3-(3-fluoro-4-((3-methyl-1H-pyrrolo[2,3-b]pyridin-4-yl)oxy)phenyl)propan-1-one], the Ki at Rho kinase 1 (ROCK-I) and on Rho kinase 2 (ROCK-II) was below 3 nM throughout.
Regarding `Cc1c[nH]c2nccc(Oc3ccc(C[C@H](N)C(=O)N4CCN(C(=O)N(C)C)CC4)cc3F)c12` [Example 23, (S)-4-(2-amino-3-(3-fluoro-4-((3-methyl-1H-pyrrolo[2,3-b]pyridin-4-yl)oxy)phenyl)propanoyl)-N,N-dimethylpiperazine-1-carboxamide], the Ki at Rho kinase 1 (ROCK-I) and on Rho kinase 2 (ROCK-II) was below 3 nM each time.
With `CN1C[C@@H]2C[C@H]1CN2C(=O)[C@@H](N)Cc1ccc(Oc2ccnc3[nH]cc(CO)c23)c(F)c1` [Example 211, (S)-2-amino-3-(3-fluoro-4-((3-(hydroxymethyl)-1H-pyrrolo[2,3-b]pyridin-4-yl)oxy)phenyl)-1-((1S,4S)-5-methyl-2,5-diazabicyclo[2.2.1]-heptan-2-yl)propan-1-one], the Ki at Rho kinase 1 (ROCK-I) and at Rho kinase 2 (ROCK-II) was 3 to 30 nM in each case.
For `Cc1c[nH]c2nccc(Oc3ccc(C[C@H](N)C(=O)N4CCc5ncncc5C4)cc3F)c12` [Example 2, (S)-2-amino-1-(7,8-dihydropyrido[4,3-d]pyrimidin-6(5H)-yl)-3-(3-fluoro-4-((3-methyl-1H-pyrrolo[2,3-b]pyridin-4-yl)oxy)phenyl)propan-1-one], the Ki at Rho kinase 1 (ROCK-I) and at Rho kinase 2 (ROCK-II) was below 3 nM throughout.
On to `O=C(NC(Cc1ccc(Oc2ccnc3[nH]ccc23)cc1)C(=O)Nc1ccccc1)C1CCNC1` (stereo not shown) [Example 179, N-(3-(4-((1H-pyrrolo[2,3-b]pyridin-4-yl)oxy)phenyl)-1-oxo-1-(phenylamino)propan-2-yl)pyrrolidine-3-carboxamide], for which the Ki on Rho kinase 1 (ROCK-I) and on Rho kinase 2 (ROCK-II) was 3 to 30 nM in each case.
